Like-named read-outs stand apart in the source and are kept apart here.
Tests used:
[1] = molecular target: T1, human GLP-1 receptor (hGLP-1R) (Homo sapiens, UniProt P43220); assay: [125I]-GLP-1 binding, SPA with membranes of HEK293 cells expressing hGLP-1R
T1 construct: expressed in transfected cells; crude membranes

[2] = molecular target: hGLP-1R (Homo sapiens, UniProt P43220); assay: Functional cAMP formation (HTRF) in HEK-293 clonal cells expressing hGLP-1R, 0.1% bovine casein, without or with 1.0% human serum albumin; format: cell-based; set-up: expressed in transfected cells; conditions: for Emax: percent of maximal response to GLP-1(7-36)NH2; for EC50: cAMP
Summary of the method: (§1)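 Cells were stimulated with peptide for 30 min at 37° C, then intracellular cAMP was measured by competitive HTRF (665/620 nm ratio) and converted to nM using a cAMP standard curve. Relative EC50 and Emax came from four-parameter logistic fits of percent maximal response against peptide concentration.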

[3] = molecular target: T2, human GIP receptor (hGIPR) (Homo sapiens, UniProt P48546); assay: [125I]-GIP binding, SPA with membranes of CHO cells expressing hGIPR
T2 construct: expressed in transfected cells; crude membranes
T2 sequence (P48546 22-466): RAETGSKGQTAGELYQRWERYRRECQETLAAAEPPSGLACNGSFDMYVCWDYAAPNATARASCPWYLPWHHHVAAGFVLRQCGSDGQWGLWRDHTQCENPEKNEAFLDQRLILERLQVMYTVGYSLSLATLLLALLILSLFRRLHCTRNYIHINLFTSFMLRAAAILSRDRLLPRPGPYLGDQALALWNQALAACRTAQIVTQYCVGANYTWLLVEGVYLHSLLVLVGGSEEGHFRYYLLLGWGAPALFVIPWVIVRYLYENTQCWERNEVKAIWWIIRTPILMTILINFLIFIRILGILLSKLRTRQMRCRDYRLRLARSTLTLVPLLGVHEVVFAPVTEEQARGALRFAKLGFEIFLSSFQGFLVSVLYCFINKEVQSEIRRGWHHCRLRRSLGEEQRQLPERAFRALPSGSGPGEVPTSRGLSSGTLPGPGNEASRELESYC

[4] = molecular target: T3, hGCGR (Homo sapiens, UniProt P47871); assay: Functional cAMP formation (HTRF) in HEK-293 clonal cells expressing hGCGR, 0.1% bovine casein, without or with 1.0% human serum albumin; format: cell-based; conditions: 37° C.
T3 construct: expressed in transfected cells
Summary of the method: as §1

[5] = molecular target: T4, hGIPR (Homo sapiens, UniProt P48546); assay: Functional cAMP formation (HTRF) in HEK-293 clonal cells expressing hGIPR, 0.1% bovine casein, without or with 1.0% human serum albumin; format: cell-based; conditions: 37° C.; for Emax: percent of maximal response to GIP(1-42)NH2, read-out: hGIPR Emax, % ± SEM; for EC50: cAMP, 0.1% bovine casein (no human serum albumin), geometric mean
T4 construct: expressed in transfected cells
T4 sequence (P48546 22-466): T2 sequence (P48546 22-466)
Summary of the method: as §1

[6] = human GLP-1R, geometric mean (SEM, n), read-out: Binding Affinity Ki, nM (SEM, n) hGLP-1R
[7] = HEK293, cAMP, 37° C., 0.1% bovine casein, arithmetic mean, read-out: hGLP-1R Emax, % ± SEM
[8] = 37° C., 0.1% bovine casein (no human serum albumin), geometric mean, read-out: hGLP-1R EC50, nM (SEM, n)
[9] = human GIPR, geometric mean (SEM, n), read-out: Binding Affinity Ki, nM (SEM, n) hGIPR
[10] = cAMP, 0.1% bovine casein (no human serum albumin), geometric mean, read-out: hGCGR EC50, nM (SEM, n)
[11] = read-out: hGIPR EC50, nM (SEM, n)
[12] = HEK293, cAMP, 37° C., 0.1% bovine casein and 1.0% human serum albumin, read-out: hGLP-1R Emax, % ± SEM
[13] = cAMP, 0.1% bovine casein and 1.0% human serum albumin, geometric mean (SEM, n), read-out: hGCGR EC50, nM (SEM, n)
[14] = HEK293, cAMP, 0.1% bovine casein and 1.0% human serum albumin

Chain of hGLP-1R (P43220 24-463): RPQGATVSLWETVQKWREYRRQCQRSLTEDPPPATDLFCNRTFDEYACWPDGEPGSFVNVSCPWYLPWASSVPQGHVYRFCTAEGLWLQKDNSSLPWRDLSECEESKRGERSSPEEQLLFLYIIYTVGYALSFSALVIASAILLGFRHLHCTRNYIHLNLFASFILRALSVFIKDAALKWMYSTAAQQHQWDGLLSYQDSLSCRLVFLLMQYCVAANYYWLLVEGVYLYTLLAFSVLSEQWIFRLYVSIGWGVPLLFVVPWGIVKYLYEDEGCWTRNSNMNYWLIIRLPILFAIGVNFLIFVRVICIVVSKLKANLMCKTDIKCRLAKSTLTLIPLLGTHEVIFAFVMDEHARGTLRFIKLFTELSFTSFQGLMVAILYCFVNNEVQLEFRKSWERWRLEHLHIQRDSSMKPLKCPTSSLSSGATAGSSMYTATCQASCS
T1 sequence (P43220 24-463): as above
T3 sequence (P47871 26-477): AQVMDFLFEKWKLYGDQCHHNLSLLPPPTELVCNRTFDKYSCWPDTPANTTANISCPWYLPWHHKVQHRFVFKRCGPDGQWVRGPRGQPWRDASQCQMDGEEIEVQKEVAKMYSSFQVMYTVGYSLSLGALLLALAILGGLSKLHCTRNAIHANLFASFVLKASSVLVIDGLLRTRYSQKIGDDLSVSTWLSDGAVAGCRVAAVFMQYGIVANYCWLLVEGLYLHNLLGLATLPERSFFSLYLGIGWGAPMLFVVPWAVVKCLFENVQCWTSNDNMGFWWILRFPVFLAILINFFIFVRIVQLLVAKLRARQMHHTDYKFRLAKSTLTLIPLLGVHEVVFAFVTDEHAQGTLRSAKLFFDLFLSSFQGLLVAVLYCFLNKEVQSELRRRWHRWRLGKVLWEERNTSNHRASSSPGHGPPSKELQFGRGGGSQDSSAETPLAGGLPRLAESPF

Compound	Ki [1, 6] [nM]	Emax [2, 7] [%]	EC50 [2, 8] [nM]	Ki [3, 9] [nM]	EC50 [4, 10] [nM]	EC50 [5, 11] [nM]	Emax [2, 12] [%]	EC50 [4, 13] [nM]	Emax [5, 14] [%]	other results
CCCCCCCCCCCC(=O)N[C@@H](CCC(=O)NCCOCCOCC(=O)NCCOCCOCC(=O)NCCCC[C@H](NC(=O)[C@H](CCCN)NC(=O)[C@H](CC(=O)O)NC(=O)[C@H](CC(C)C)NC(=O)[C@](C)(CC(C)C)NC(=O)[C@@H](NC(=O)C(C)(C)NC(=O)[C@H](Cc1ccncc1)NC(=O)[C@H](CC(=O)O)NC(=O)[C@H](CO)NC(=O)[C@@H](NC(=O)[C@](C)(Cc1ccccc1F)NC(=O)[C@@H](NC(=O)CNC(=O)[C@H](CCC(=O)O)NC(=O)C(C)(C)NC(=O)[C@@H](N)Cc1ccc(O)cc1)[C@@H](C)O)[C@@H](C)O)[C@@H](C)CC)C(=O)N[C@@H](C)C(=O)N[C@@H](CCC(N)=O)C(=O)NC(C)(C)C(=O)N[C@@H](CCCCNC(=O)COCCOCCNC(=O)COCCOCCNC(=O)CC[C@H](NC(=O)CCCCCCCCCCC)C(=O)O)C(=O)N[C@@H](Cc1ccccc1)C(=O)N[C@H](C(=O)N[C@H](CCC(=O)O)C(=O)N[C@@](C)(Cc1ccc(O)cc1)C(=O)N[C@@H](CC(C)C)C(=O)N[C@H](C(=O)N[C@@H](CCC(=O)O)C(=O)NCC(=O)NCC(=O)N1CCC[C@H]1C(=O)N[C@@H](CO)C(=O)N[C@@H](CO)C(=O)NCC(=O)N[C@@H](C)C(=O)N1CCC[C@H]1C(=O)N1CCC[C@H]1C(=O)N1CCC[C@H]1C(=O)N[C@@H](CO)C(N)=O)[C@@H](C)CC)[C@@H](C)CC)C(=O)O [Example 322]	0.234	100	0.144	0.0162	> 9950	0.00937				Emax ([2]; HEK293, 0.1% bovine casein and 1.0% human serum albumin, 37° C., read-out: hGLP-1R Emax, % ± SEM): 94.5%; EC50 ([4]; 0.1% bovine casein and 1.0% human serum albumin, geometric mean, read-out: hGCGR EC50, nM (SEM, n)): > 9950 nM; Emax ([5]; HEK293, 0.1% bovine casein and 1.0% human serum albumin): 89.7%
CCCCCCCCCCCC(=O)N[C@@H](CCC(=O)NCCOCCOCC(=O)NCCOCCOCC(=O)NCCCC[C@H](NC(=O)[C@H](CO)NC(=O)[C@@H]1CCCN1C(=O)[C@@H]1CCCN1C(=O)[C@@H]1CCCN1C(=O)[C@H](C)NC(=O)CNC(=O)[C@H](CO)NC(=O)[C@H](CO)NC(=O)[C@@H]1CCCN1C(=O)CNC(=O)CNC(=O)[C@H](CCC(=O)O)NC(=O)[C@@H](NC(=O)[C@H](CC(C)C)NC(=O)[C@](C)(Cc1ccc(O)cc1)NC(=O)[C@@H](CCC(=O)O)NC(=O)[C@@H](NC(=O)[C@H](Cc1ccccc1)NC(=O)[C@H](CCC(=O)O)NC(=O)C(C)(C)NC(=O)[C@H](CCC(N)=O)NC(=O)[C@H](C)NC(=O)[C@H](CCCCNC(=O)COCCOCCNC(=O)COCCOCCNC(=O)CC[C@H](NC(=O)CCCCCCCCCCC)C(=O)O)NC(=O)[C@H](CCCN)NC(=O)[C@H](CC(=O)O)NC(=O)[C@H](CC(C)C)NC(=O)[C@](C)(CC(C)C)NC(=O)[C@@H](NC(=O)C(C)(C)NC(=O)[C@H](Cc1ccncc1)NC(=O)[C@H](CC(=O)O)NC(=O)[C@H](CO)NC(=O)[C@@H](NC(=O)[C@](C)(Cc1ccccc1F)NC(=O)[C@@H](NC(=O)CNC(=O)[C@H](CCC(=O)O)NC(=O)C(C)(C)NC(=O)[C@@H](N)Cc1ccc(O)cc1)[C@@H](C)O)[C@@H](C)O)[C@@H](C)CC)[C@@H](C)CC)[C@@H](C)CC)C(N)=O)C(=O)O [Example 324]	0.168	97.6	0.0647	0.0163	> 9950	0.00632	99.4	> 9950	85.4	EC50 ([2]; 37° C., 0.1% bovine casein and 1.0% human serum albumin, geometric mean (SEM, n), read-out: hGLP-1R EC50, nM (SEM, n)): 4.38 nM
CC[C@H](C)[C@H](NC(=O)[C@H](CC(C)C)NC(=O)[C@](C)(Cc1ccc(O)cc1)NC(=O)[C@@H](CCC(=O)O)NC(=O)[C@@H](NC(=O)[C@H](Cc1ccccc1)NC(=O)[C@H](CCCCNC(=O)COCCOCCNC(=O)CC[C@H](NC(=O)CCCCCCCCCOc1ccc(C(=O)O)cc1)C(=O)O)NC(=O)C(C)(C)NC(=O)[C@H](CCC(N)=O)NC(=O)[C@H](C)NC(=O)[C@H](CCCCNC(=O)COCCOCCNC(=O)CC[C@H](NC(=O)CCCCCCCCCOc1ccc(C(=O)O)cc1)C(=O)O)NC(=O)[C@H](CCCN)NC(=O)[C@H](CC(=O)O)NC(=O)[C@H](CC(C)C)NC(=O)[C@](C)(CC(C)C)NC(=O)[C@@H](NC(=O)C(C)(C)NC(=O)[C@H](Cc1ccncc1)NC(=O)[C@H](CC(=O)O)NC(=O)[C@H](CO)NC(=O)[C@@H](NC(=O)[C@](C)(Cc1ccccc1F)NC(=O)[C@@H](NC(=O)CNC(=O)[C@H](CCC(=O)O)NC(=O)C(C)(C)NC(=O)[C@@H](N)Cc1ccc(O)cc1)[C@@H](C)O)[C@@H](C)O)[C@@H](C)CC)[C@@H](C)CC)C(=O)N[C@@H](CCC(=O)O)C(=O)NCC(=O)NCC(=O)N1CCC[C@H]1C(=O)N[C@@H](CO)C(=O)N[C@@H](CO)C(=O)NCC(=O)N[C@@H](C)C(=O)N1CCC[C@H]1C(=O)N1CCC[C@H]1C(=O)N1CCC[C@H]1C(=O)N[C@@H](CO)C(N)=O [Example 360]										Ki [1]: 0.673 nM; Emax ([2]; HEK293, read-out: hGLP-1R Emax, % ± SEM, cAMP, 37° C., 0.1% bovine casein and 1.0% human serum albumin): 97.1%; Emax ([2]; HEK293, read-out: hGLP-1R Emax, % ± SEM, cAMP, 37° C., 0.1% bovine casein, arithmetic mean): 89.8%; EC50 ([2]; hGLP-1R EC50, nM (SEM, n), 37° C., 0.1% bovine casein (no human serum albumin), geometric mean): 0.301 nM; Ki [3]: 0.046 nM; EC50 ([4]; hGCGR EC50, nM (SEM, n), cAMP, 0.1% bovine casein (no human serum albumin), geometric mean): > 9950 nM; EC50 ([4]; hGCGR EC50, nM (SEM, n), cAMP, 0.1% bovine casein and 1.0% human serum albumin, geometric mean (SEM, n)): > 9950 nM; EC50 ([5]; hGIPR EC50, nM (SEM, n)): 0.0121 nM
CC[C@H](C)[C@H](NC(=O)[C@H](CC(C)C)NC(=O)[C@](C)(Cc1ccc(O)cc1)NC(=O)[C@H](CCCCNC(=O)COCCOCCNC(=O)COCCOCCNC(=O)CC[C@H](NC(=O)CCCCCCCCCCCCC(=O)O)C(=O)O)NC(=O)[C@@H](NC(=O)[C@H](Cc1ccccc1)NC(=O)[C@H](CCCN)NC(=O)C(C)(C)NC(=O)[C@H](CCC(N)=O)NC(=O)[C@H](C)NC(=O)[C@H](CCC(N)=O)NC(=O)[C@H](CCCN)NC(=O)[C@H](CC(=O)O)NC(=O)[C@H](CC(C)C)NC(=O)[C@](C)(CC(C)C)NC(=O)[C@@H](NC(=O)C(C)(C)NC(=O)[C@H](Cc1ccncc1)NC(=O)[C@H](CC(=O)O)NC(=O)[C@H](CO)NC(=O)[C@@H](NC(=O)[C@](C)(Cc1ccccc1F)NC(=O)[C@@H](NC(=O)CNC(=O)[C@H](CCC(=O)O)NC(=O)C(C)(C)NC(=O)[C@@H](N)Cc1ccc(O)cc1)[C@@H](C)O)[C@@H](C)O)[C@@H](C)CC)[C@@H](C)CC)C(=O)N[C@@H](CCCCNC(=O)COCCOCCNC(=O)COCCOCCNC(=O)CC[C@H](NC(=O)CCCCCCCCCCCCC(=O)O)C(=O)O)C(=O)NCC(=O)NCC(=O)N1CCC[C@H]1C(=O)N[C@@H](CO)C(=O)N[C@@H](CO)C(=O)NCC(=O)N[C@@H](C)C(=O)N1CCC[C@H]1C(=O)N1CCC[C@H]1C(=O)N1CCC[C@H]1C(=O)N[C@@H](CO)C(N)=O [Example 391]	0.346	109	0.167	0.0279	> 9950	0.0101	105	> 9950	88.3	
